According to publication PMC9112895, “Selective Inhibition of Plasmodium falciparum ATPase 6 by Artemisinins and Identification of New Classes of Inhibitors after Expression in Yeast” (Antimicrobial Agents and Chemotherapy, 2022):
Marks after values point to notes of the source that are not given here.

What was measured:
PfATP6 [1] = target: T1, PfATP6 (Plasmodium falciparum, UniProt Q08853); test: Yeast whole-cell growth inhibition (functional rescue) assay, K667[PfATP6]; type: cell-based; parameters: pUGpd containing the yeast-optimized coding region of PfATP6 from Plasmodium falciparum; expressed in transfected cells; host or cells: Saccharomyces cerevisiae K667 and K667Δpdr5::HIS
Procedure: (§1) The screening assay used here was developed from the protocol used by Pulcini et al. ([13]). A single colony of the yeast strain to be screened was picked and grown in 5 mL of selective medium until stationary phase was reached. The culture was diluted 100-fold in ampicillin-supplemented yeast extract-peptone-dextrose (YPD) medium to an OD at 620 nm (OD620) equivalent to that of lag phase. YPD medium was supplemented with an appropriate concentration of calcium, depending on the transformed strain. […] The optimal calcium concentration was periodically monitored and, if necessary, adjusted using a calcium concentration range of 10 to 30 mM. A final volume of 200 μL of the yeast culture was added to each well of a 96-well plate, with 5 technical replicates included per inhibitor. All inhibitors were dissolved in dimethyl sulfoxide (DMSO) unless otherwise stated. […] The 96-well plates were incubated at 30°C for 42 h. The yeast growth was estimated from the absorbance at 620 nm in a Tecan plate reader. Growth was normalized with the no-drug control to present data as percent growth. The data collected were analyzed using GraphPad Prism v9.0 (GraphPad software, San Diego, CA, U.S.A).

PfATP6 [2] = target: T1, PfATP6; test: cell-based; type: cell-based; parameters: pUGpd containing the yeast-optimized coding region of PfATP6 from Plasmodium falciparum; expressed in transfected cells; host or cells: Saccharomyces cerevisiae K667 and K667Δpdr5::HIS; conditions: for Fold difference: IC50 K667[PfATP6] versus K667Δpdr5[PfATP6]; for inhibition of PfATP6 in compound screen: growth inhibition, K667Δpdr5[PfATP6]
Procedure: as §1

[3] = test system: cytosolic Ca2+ concentration in parasites; test: Parasite calcium homeostasis (YC-Nano biosensor, flow cytometry); type: cell-based, Plasmodium falciparum; conditions: 25 μM, YC-Nano-expressing parasites
Procedure: Three biological replicates were carried out, after an initial blinded experiment.

PfATP6 [4] = target: T1, PfATP6; test: DHA-biotin labeling / pulldown, Western blot and mass spectrometry; type: binding; parameters: pUGpd containing the yeast-optimized coding region of PfATP6 from Plasmodium falciparum; expressed in transfected cells; host or cells: Saccharomyces cerevisiae K667 and K667Δpdr5::HIS
Procedure: Both whole yeast and microsomes were prepared for mass spectrometric analysis by addition of 500 nM biotin-tagged DHA probe to 200 μL (∼0.6 mg protein) of yeast microsome preparation or 10 μM probe to 50 to 100 mL yeast culture at an OD620 of 1.0 to 1.5 (∼35 to 70 mg total protein) and incubation for 4 h at 30°C. For competition studies, 25× artesunate was added and incubated for 30 min before addition of the probe and incubation for 4 h at 30°C. Samples were then acetone precipitated by adding 4 volumes of −20°C acetone/water (4:1) to the yeast pellet or microsomal pellet and incubating the mixture for 2 h to overnight at −20°C. The samples were then pelleted at 13,000 to 16,000 × g for 10 min at 0°C to 4°C and washed twice with −20°C acetone/water solution. After a final centrifugation, pellets were dried in a freeze-drier for 1 h. Subsequent pulldowns and liquid chromatography-tandem mass spectrometry were performed as described by Wang et al. ([18]).
A 0.3-mg aliquot of PfATP6-enriched membrane vesicles, as well as an aliquot of SERCA1a and vector-only membrane vesicles, were thawed on ice. One-half of each aliquot (0.15 mg) was preincubated with 12.5 μM artesunate at 30°C for 30 min. Then, all samples had 500 nM DHA-biotin probe added (NewChem Technologies) and were incubated at 30°C for 4 h. […] Blots were analyzed using the Odyssey scanner system. […]

Plasmodium falciparum = test: In vitro parasite assay ([3H]hypoxanthine uptake); type: cell-based; conditions: parasites in vitro, read-out: antiparasitic potency IC50
Procedure: Inhibitor IC50s were calculated in parasite assays following the protocol described by Desjardins et al. ([52]). Briefly, cultures were synchronized to ring stage by D-sorbitol lysis, using a 5% D-sorbitol solution. The parasites were diluted to a final parasitemia of 1%. Hypoxanthine-free medium was added to give a hematocrit level of 4%. A 2-fold dilution series of the inhibitors in hypoxanthine-free medium was prepared, and 100 μL of each inhibitor concentration was seeded in a 96-well plate, with 5 technical replicates of each included. Two no-inhibitor controls, i.e., hypoxanthine-free medium only, were included. Plates were incubated at 37°C in 5% CO2 for 24 h. After 24 h, [^3H]hypoxanthine was added to each well to a final concentration of 0.5 μCi/well, and the plates were incubated for a further 24 h. Plates were then freeze-thawed to lyse the cells, and the [^3H]hypoxanthine uptake was measured in a Beckman scintillation counter.

PfATP6 [5] = target: T1, PfATP6; test: In vitro activity assay, PfATP6 (membrane-bound); type: biochemical; parameters: pUGpd containing the yeast-optimized coding region of PfATP6 from Plasmodium falciparum; expressed in transfected cells; conditions: 1 μM free calcium
Procedure: Activity assays were performed as described by Longland et al. ([55]) and LeBel et al. ([56]), except that the reaction mixtures were incubated at 30°C instead of 37°C. […] Then, 5.8 mM ATP was added and incubated for an additional 15 min at 30°C. The reaction was stopped with 0.5 mL 6.5% trichloroacetic acid (TCA) on ice, and the mixture was centrifuged at 4°C for 10 min at 16,000 × g; 0.5 mL of the supernatant was added to 1.5 mL of copper acetate buffer (0.25% copper sulfate pentahydrate, 4.6% sodium acetate trihydrate, dissolved in 2 M acetic acid [pH 4.0]) and mixed by vortex-mixing before the addition of 0.25 mL of 5% ammonium molybdate, followed by 0.25 mL METOL buffer (2% p-methyl-aminophenol sulfate, 5% sodium sulfite). Samples were incubated for 10 min, and the absorbance was measured at 870 nm in a spectrophotometer. The Pi standard was 0.4387 g/100 mL KH2PO4.

T1 sequence (Q08853 whole entry): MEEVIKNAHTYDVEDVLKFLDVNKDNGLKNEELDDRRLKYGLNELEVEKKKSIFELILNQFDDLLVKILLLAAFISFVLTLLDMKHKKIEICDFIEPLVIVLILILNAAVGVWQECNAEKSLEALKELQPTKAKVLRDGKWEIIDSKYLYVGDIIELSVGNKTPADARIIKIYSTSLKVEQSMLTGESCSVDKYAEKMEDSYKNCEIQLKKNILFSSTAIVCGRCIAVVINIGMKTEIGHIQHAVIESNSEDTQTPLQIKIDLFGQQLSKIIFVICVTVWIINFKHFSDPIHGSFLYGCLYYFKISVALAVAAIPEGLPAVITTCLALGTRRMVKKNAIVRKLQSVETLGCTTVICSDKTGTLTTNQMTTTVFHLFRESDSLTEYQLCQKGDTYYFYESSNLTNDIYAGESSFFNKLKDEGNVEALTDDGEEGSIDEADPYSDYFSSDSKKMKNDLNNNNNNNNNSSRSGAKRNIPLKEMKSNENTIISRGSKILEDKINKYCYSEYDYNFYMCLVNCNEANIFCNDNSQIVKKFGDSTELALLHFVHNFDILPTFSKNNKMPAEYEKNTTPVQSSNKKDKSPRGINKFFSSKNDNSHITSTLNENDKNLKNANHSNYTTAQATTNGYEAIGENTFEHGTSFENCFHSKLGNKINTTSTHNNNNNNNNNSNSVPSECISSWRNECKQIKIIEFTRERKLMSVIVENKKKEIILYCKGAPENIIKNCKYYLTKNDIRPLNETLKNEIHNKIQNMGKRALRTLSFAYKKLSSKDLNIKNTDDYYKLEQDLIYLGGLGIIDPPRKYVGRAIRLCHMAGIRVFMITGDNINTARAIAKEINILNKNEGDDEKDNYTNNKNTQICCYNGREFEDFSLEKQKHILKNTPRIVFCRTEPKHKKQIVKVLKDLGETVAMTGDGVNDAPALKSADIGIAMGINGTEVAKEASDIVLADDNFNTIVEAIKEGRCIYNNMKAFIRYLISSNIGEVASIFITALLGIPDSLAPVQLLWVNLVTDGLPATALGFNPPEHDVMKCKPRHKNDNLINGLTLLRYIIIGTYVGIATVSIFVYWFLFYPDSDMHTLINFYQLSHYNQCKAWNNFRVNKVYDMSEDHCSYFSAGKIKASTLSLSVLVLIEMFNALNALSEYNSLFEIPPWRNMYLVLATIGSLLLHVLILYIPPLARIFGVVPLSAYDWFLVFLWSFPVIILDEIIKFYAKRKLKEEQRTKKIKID

Structure (SMILES)	IC50 (PfATP6 [1]) [µM]	IC50 (PfATP6 [2]) [nM]	Fold difference (PfATP6 [2])	further results
CO[C@H]1O[C@@H]2O[C@@]3(C)CC[C@H]4[C@H](C)CC[C@@H]([C@H]1C)[C@@]24OO3 [Artemether]	15.7	3400	5^e	approximate IC10 (PfATP6 [2]; fitness cost assays, drug pressure): ~1 µM; IC80 (PfATP6 [2]; read-out: approximate yeast IC80): ~1000 nM
C[C@@H]1CC[C@H]2[C@@H](C)C(=O)O[C@@H]3O[C@@]4(C)CC[C@@H]1[C@]32OO4 [Artemisinin]	10.6	1800	–	–
C[C@H]1[C@H](N2CCS(=O)(=O)CC2)O[C@@H]2O[C@@]3(C)CC[C@H]4[C@H](C)CC[C@@H]1[C@@]24OO3 [Artemisone]	3.6	900	4^c	change in cytosolic Ca2+ concentration [3]: significantly increased; change in cytosolic Ca2+ concentration ([3]; listed as artemisone): sustained elevation
C[C@H]1[C@H](OC(=O)CCC(=O)O)O[C@@H]2O[C@@]3(C)CC[C@H]4[C@H](C)CC[C@@H]1[C@@]24OO3 [Artesunate]	14.8	3700	4^d	competition with tagged DHA for PfATP6 (PfATP6 [4]; preincubation with excess artesunate): competed with the tagged DHA
C[C@H]1[C@@H](O)O[C@@H]2O[C@@]3(C)CC[C@H]4[C@H](C)CC[C@@H]1[C@@]24OO3 [DHA, dihydroartemisinin]	23.8	2100	11^c	IC50 (Plasmodium falciparum): 2.5 nM; in vitro activity of PfATP6 versus no drug control (PfATP6 [5]): No significant
Oc1ccc(O)cc1 [benzohydroquinone]	–	–	–	inhibition of PfATP6 in compound screen (PfATP6 [2]): limited success
CC1CCC2C(C)C(OC(=O)CCOCCOCCOCCOCCNC(=O)CCCCC3SCC4NC(=O)NC43)OC3OC4(C)CCC1C32OO4 (stereo not drawn) [biotin-derivatized DHA]	–	–	–	IC50 (Plasmodium falciparum): 5 nM; alkylation/labeling of PfATP6 (PfATP6 [4]; membrane extracts and whole yeast, K667[PfATP6], mass spectrometry): alkylated
C[C@@H]1CC[C@H]2[C@@H](C)C(=O)O[C@@H]3O[C@@]4(C)CC[C@@H]1[C@]32O4 [deoxyartemisinin]	–	–	–	in vitro activity of PfATP6 versus no drug control (PfATP6 [5]): No significant
Cc1cc(O)c2c(=O)c3c(O)cc(O)c4c5c(O)cc(O)c6c(=O)c7c(O)cc(C)c8c1c2c(c34)c(c78)c65 [hypericin]	–	–	–	inhibition of PfATP6 in compound screen (PfATP6 [2]): limited success
C[C@H]1O[C@@H](O[C@H]2CC[C@@]3(C)[C@@H](CC[C@]4(C)[C@@H]3C=C[C@]35OC[C@@]6(CCC(C)(C)C[C@H]63)[C@H](O)C[C@]54C)[C@]2(C)CO)[C@H](O)[C@@H](O[C@@H]2O[C@H](CO)[C@@H](O)[C@H](O)[C@H]2O)[C@H]1O [saikosaponin, Saikosaponin D]	–	–	–	concentration at which PfATP6 was inhibited (PfATP6 [2]; inhibited only at high concentrations): > 100 µM
